Tests used:
[1] = tested on: OXA-induced ear edema, ACD mouse model; assay: Oxazolone-induced allergic contact dermatitis model, ear edema; format: in vivo
Description: Prednisolone was solved in 1:1 of DMSO/saline and was administered topically (15-15 μL to the inner and outer surface of the ears). All other test compounds were solved in 96% ethanol. All solutions of all the concentrations were prepared freshly on the first day of every experiment and were stored at 4° C., then shaken properly before the treatments.
Anesthesia was induced by ketamine (Richter Gedeon, Budapest, Hungary) (100 mg/kg i.p., repeated as required) with xylazine (Lavet Ltd., Budapest, Hungary) (5 mg/kg i.m.). Animals were sensitized on two consecutive days by painting 2% oxazolone (50-50 μL, Merck KGaA) on the shaved abdomen. On the 6th day the right ears were smeared with 2% oxazolone (OXA) dissolved in 96% ethanol: 15-15 μL solution was applied on each of the inner and outer surfaces. Control ears were treated with 96% ethanol in the same way. Drug-treated groups were treated with 15-15 μL of drug solution smeared to the inner and outer side of the ears every 4 hrs of the experiment after oxazolone treatment. A schematic of the experimental protocol is provided in FIG. 24 and the experimental groups are defined below. • (a) Group 1: Ethanol-treated Controls: left ear: 96% ethanol, right ear: 2% oxazolone • (b) Group 2: 1 μM CBD • (c) Group 3: 10 μM CBD • (d) Group 4: 1 μM HU101 • (e) Group 5: 10 μMHU101
Ear thickness was measured with an engineer's micrometer, with 0.1 mm accuracy, before challenge with test agents and after the challenge at different time points. Data are expressed as % increase of ear thickness compared to the initial values.
Results are expressed as mean±SEM. Comparisons between different treatment groups were performed using two-way ANOVA followed by Sidak's post hoc test for skin thickness and one-way ANOVA followed by Bonferroni's post hoc test for MPO and vascular leakage. * p<0.05 was considered to be significant.

[2] = tested on: pro-inflammatory cytokine expression (IL-1α, IL-1β, IL-6, IL-8, TNFα) in HaCaT keratinocytes; assay: Inflammatory epidermal keratinocyte models (SDS, Nickel, Carvacrol, SLIGRL, UVB, Poly p(I:C), SEB/TSLP), cytokine RT-qPCR; format: cell-based, human; settings: seven keratinocyte inflammation models

## C[C@]12C=CC(=O)C=C1CC[C@@H]1[C@@H]2[C@@H](O)C[C@@]2(C)[C@H]1CC[C@]2(O)C(=O)CO [Prednisolone, reference compound]
[1]; positive control, topical
  reduction in OXA-induced edema formation: most robust reduction

## C=C(C)[C@@H]1CCC(C)=C[C@H]1c1c(O)cc(CCCCC)c(F)c1O [HUF101]
[1]; 1 μM topical, depending on the time-point
  efficacy relative to the efficacy of prednisolone: 40-60%
[1]; OXA + CBD 10 μM vs. OXA + HUF101 1 μM, 24 h
  Effect in ACD mouse model, significance of ear edema difference: ** (** p ≤ 0.01)
[1]; OXA + CBD 10 μM vs. OXA + HUF101 1 μM, 48 h
  Effect in ACD mouse model, significance of ear edema difference: *** (*** p ≤ 0.001)
[1]; OXA + CBD 10 μM vs. OXA + HUF101 1 μM, 56 h
  Effect in ACD mouse model, significance of ear edema difference: *** (*** p ≤ 0.001)
[1]; OXA + CBD 10 μM vs. OXA + HUF101 10 μM, 48 h
  Effect in ACD mouse model, significance of ear edema difference: ** (** p ≤ 0.01)
[1]; OXA + CBD 10 μM vs. OXA + HUF101 10 μM, 56 h
  Effect in ACD mouse model, significance of ear edema difference: *** (*** p ≤ 0.001)
[1]; OXA vs. OXA + HUF101 1 μM, 24 h
  Effect in ACD mouse model, significance of ear edema difference: *** (*** p ≤ 0.001)
[1]; OXA vs. OXA + HUF101 1 μM, 48 h
  Effect in ACD mouse model, significance of ear edema difference: *** (*** p ≤ 0.001)
[1]; OXA vs. OXA + HUF101 1 μM, 56 h
  Effect in ACD mouse model, significance of ear edema difference: *** (*** p ≤ 0.001)
[1]; OXA vs. OXA + HUF101 10 μM, 24 h
  Effect in ACD mouse model, significance of ear edema difference: *** (*** p ≤ 0.001)
[1]; OXA vs. OXA + HUF101 10 μM, 48 h
  Effect in ACD mouse model, significance of ear edema difference: *** (*** p ≤ 0.001)
[1]; OXA vs. OXA + HUF101 10 μM, 56 h
  Effect in ACD mouse model, significance of ear edema difference: * (* p ≤ 0.05)
[1]; both doses (1 μM and 10 μM), topical, all time-points
  anti-inflammatory actions on OXA-induced edema: statistically significant anti-inflammatory actions at all time-points
[1]; both doses, statistically significant compared to 10 μM CBD
  effects compared with 1 μM or 10 μM CBD: more robust effects
[1]; topical
  efficacy of 1 μM compared with 10 μM: somewhat higher
[2]
  rank order of efficacy among the F-CBDs: HUF103>HU559a>HUF101
